Assay results reported in US20260315431A1, “NANOMATERIAL ENCAPSULATED BIOFILM INHIBITORS FOR DENTAL CARIES TREATMENT” (THE UAB RESEARCH FOUNDATION, priority 2023, published 2026).
Read-outs that look alike come from different tables or passages of the source.

System: S. mutans UA159
Assay: Biofilm inhibition, S. mutans UA159 (crystal violet, OD562)
Assay type: cell-based, Streptococcus mutans
Details: for inhibition at 50 µM: UA159, 50 μM
Procedure: The bacterial strains, S. mutans UA159, S. gordonii DL1, and S. sanguinis SK36 were inoculated statically at 37° C. under 5% CO2 in Todd Hewitt Broth (THB) for 24 h. The cultures were then diluted with fresh THB (1:5) and reinoculated until optical density at 470 nm (OD470) reached 1. The optical density was read using BioTek 800TS microplate reader at 470 nm for bacterial growth and 562 nm for biofilm stained with crystal violet. Data was plotted in Graphpad Prism9.
Biofilm inhibition assays. Biofilm inhibition assays were performed in polystyrene microtiter 96 well plates. Stock solutions were prepared in chemically defined medium (CDM, JRH Biosciences, Lenexa, KS) with 2% sucrose, 1% bacteria cultures and various concentrations of the small molecule inhibitors to examine their activity against biofilm formation as described^69, 70. These stocks were assayed in 96 well plates in triplicate and incubated at 37° C. and 5% CO2 for 16 h. After reading optical density for bacterial growth, the plate was gently washed with water, dried, and stained with crystal violet, and then gently rinsed again with deionized water leaving the stained biofilm at the bottoms of the wells. Biofilms was dissolved in 200 μL of 30% acetic acid and absorbance at 562 nm was used read to determine biofilm biomass. Each assay was carried out at least in triplicate. Biofilm inhibitory concentration (IC50) of the compounds was determined by serial dilutions.
All bacterial strains (S. mutans UA159, S. gordonii DL1, and S. sanguinis SK36) were inoculated statically at 37° C. under 5% CO2 environment in Todd Hewitt Broth (THB) for 24 h^[61]. The cultures were then diluted with fresh THB (1:5) and reinoculated until the optical density at 470 nm reaches 1. The optical density was read using BioTek 800 TS absorbance reader at 470 nm for bacterial growth and 562 nm for biofilm stained with crystal violet. Data was plotted in Prism 10.0.2.
Biofilm inhibition assays were performed in polystyrene microtiter 96-well plates. Stock solutions were prepared in chemically defined medium (CDM) with 1% sucrose, 1% bacteria cultures and various concentrations of the small molecule inhibitors to examine their activity against biofilm formation as described^[62, 63]. These stocks were assayed in 96 well plates in triplicate and incubated at 37° C. and 5% CO2 for 16 h. After reading optical density for bacterial growth, the plate was washed, dried, and stained with 0.1% crystal violet which was again rinsed well with deionized water leaving the stained biofilm at the bottoms of the wells. This biofilm was dissolved in 200 μL of 30% acetic acid and absorbance at 562 nm was read to determine amount of biofilm formation. Each assay was carried out at least in triplicate. Biofilm inhibitor concentration (IC50) of the compounds was determined by serial dilutions from 0 μM-50 μM (1% DMSO).

[1] = Streptococcus mutans, UA159, read-out: Biofilm IC50
[2] = Streptococcus mutans, S. mutans UA159 biofilm, read-out: Biofilm IC50

Structure (SMILES)	S. mutans biofilm inhibition (25 μM) [%]	inhibition at 50 µM (Streptococcus mutans) [%]	IC50 [1] [µM]	inhibition at 25 µM (Streptococcus mutans, UA159, read-out: S. mutans biofilm inhibition, 25 μM) [%]	IC50 [2] [µM]
O=C1/C(=C/c2cc(O)c(O)cc2O)Oc2ccccc21 [HA5, 2-[(2′,4′,5′-Trihydroxyphenyl)methylidene]-2,3-dihydro-1-benzofuran-3-one]	90	> 95	6.42	80	6.42
O=C1/C(=C/c2cc(O)c(O)c(O)c2)Oc2ccccc21 [HA6, 2-[(3′,4′,5′-Trihydroxyphenyl)methylidene]-2,3-dihydro-1-benzofuran-3-one]	–	> 95	18.9	–	18.9
